Data: patent US20240400638A1, “COMBINATION OF RELAXIN AND VASOPRESSIN ANALOGUES FOR TREATMENT OF RENAL DISORDERS OR CONDITIONS” (River 2 Renal Corp., priority 2021, published 2024)
Where two headings read alike, the source gives them in different places. Numbered stars: 1 amine (or outer) side, 2 acyl side, 3 side chain; on linkers, the order of the positions; unused ones are H or OH. Square brackets hold non-standard residues; d marks the D form. Side chains are listed from the residue outwards. Peptide text beside a SMILES is read from it. * marks the point of attachment. X1 = CCCCCCCCCCCCCCCC(=O)N[C@@H](CCC(=O)N[C@@H](CCC(=O)N[C@@H](CCC(=O)NCCCOCCOCCOCCCNC(=O)CCC(=O)NCCCOCCOCCOCCCNC(=O)CCC(=O)NCCCOCCOCCOCCCN*)C(=O)O)C(=O)O)C(=O)O; Suc = O=C(CCC(=O)[*:2])[*:1]; αMeK = C[C@](N)(CCCCN)C(=O)O; Aib = CC(C)(N)C(=O)O

How the values were obtained:
Assay type in all cases: in vivo, human
[1] = Phase 1 SAD/MAD study in healthy volunteers: pharmacokinetics; conditions: for AUC(0-t): read-out: AUC0-24
Experimental: (§1) Described in this Example is a Phase 1, randomized, double-blind, pacebo controlled trial for assessing safety, tolerability, PK, and PD of a Relaxin Agonist (i.e., Relaxin peptide analogue of SEQ ID NO: 3).
(§2) The SAD part A was a SAD study with a total of 40 subjects (n=8 per cohort; 6 to Relaxin Agonist and 2 to placebo) to be enrolled sequentially in up to 5 cohorts (Cohorts A1 to A5). Four cohorts received a dose via SC injection only and 1 cohort (Cohort A2, 4.0 mg) was dosed via both SC and IV injection, with at least 2-week washout period between SC and IV injections. The 4.0 mg dosing cohort (Cohort A2) received the IV dose after the 12.0 mg SC cohort (Cohort A3) was completed. Subjects in each cohort received 1 of 5 dose levels (1.0 mg, 4.0 mg, 12.0 mg, 24.0 mg, and 48.0 mg) or matching placebo as follows: • Cohort A1: a single SC dose of 1.0 mg Relaxin Agonist (n=6) or matching placebo (n=2) • Cohort A2: Period 1 a single SC dose of 4.0 mg Relaxin Agonist (n=6) or matching placebo (n=2) • Cohort A2: Period 2 a single 15-min IV dose of 4.0 mg Relaxin Agonist (n=6) or matching placebo (n=2) • Cohort A3: a single SC dose of 12.0 mg Relaxin Agonist (n=6) or matching placebo (n=2) • Cohort A4: a single SC dose of 24.0 mg Relaxin Agonist (n=6) or matching placebo (n=2) • Cohort A5: a single SC dose of 48.0 mg Relaxin Agonist (n=6) or matching placebo (n=2)
(§3) In the MAD part B of the study, a total of 24 subjects (n=8 per cohort; 6 to Relaxin Agonist and 2 to placebo) were enrolled sequentially (Cohorts B1 to B3) with subjects within a cohort being enrolled in a parallel fashion. Cohorts B1 to B3 receive one of 3 SC doses (5.0 mg, 15.0 mg, 30.0 mg once daily [QD]) as follows: • Cohort B1: 5.0 mg SC Relaxin Agonist (n=6) or matching placebo (n=2) QD for 14 days • Cohort B2: 15.0 mg SC Relaxin Agonist (n=6) or matching placebo (n=2) QD for 14 days • Cohort B3: 30.0 mg SC Relaxin Agonist (n=6) or matching placebo (n=2) QD for 14 days
After 24 mg and 48 mg sc doses, higher than dose-proportional exposures were observed (approximately 15% higher than expected).
Therefore, after sc administration, the absolute bioavailability (F) is approximately 0.76.
Preliminary PK results after single and multiple ascending doses of Relaxin Agonist administered subcutaneously (sc) are summarized in Table 6. For all dose regimens (5 mg, 15 mg, and 30 mg), an accumulation of approximately 2.6-fold was observed on Day 14.

[2] = Phase 1 single dose study in severe renal impaired and normal renal function subjects: pharmacokinetics; conditions: for AUC(0-inf) / Cmax: human, in vivo, sc, 4 mg, single 4.0 mg sc; for AUC(0-inf): read-out: AUCINF_pred
Description: (§4) This study is an open label, phase 1, multi-centre, single dose study in severe renal impaired subjects and in matched subjects with normal renal function. In this preliminary evaluation, five subjects with severe renal impairment and two subjects with normal renal function were included.
This study is a Phase 1, multi-center, single dose study in severe renal impaired subjects and in matched subjects with normal renal function. Five subjects with severe renal impairment and two subjects with normal renal function were included. PK sampling was performed predose and at 1, 2, 3, 4, 6, 8, 10, 12, 24, 48, 72, 96, and 120 h postdose.

[3] = Phase 1 single dose study in severe renal impaired and normal renal function subjects: safety; conditions: single sc 4.0 mg
Description: as §4

[4] = Phase 1 SAD/MAD study in healthy volunteers: safety and tolerability
Experimental: as §1, §2
In this first-in-human study, the subjects in all SAD cohorts were dosed according to a sentinel dosing design to ensure optimal safety. This meant that initially 2 subjects were dosed: 1 subject with Relaxin Agonist and 1 subject with placebo. If at the lowest dose level (Cohort A1) the safety and tolerability results of the first 48 h following dosing for the initial subjects was acceptable to the Investigator, the other 6 subjects (5 active and 1 placebo) were to be dosed. In Cohorts A2 to A5, the safety and tolerability results of the first 24 h following dose administration were evaluated in the first 2 subjects before the remainder of the subjects in that cohort are dosed.
as §3

[5] = severe renal impaired group compared to normal group and SAD 4 mg group
[6] = part B: once daily sc 5.0, 15.0, 30 mg for 14 days

**Q.** What does the source list for `CCCCCCCCCCCCCCCC(=O)N[C@@H](CCC(=O)N[C@@H](CCC(=O)N[C@@H](CCC(=O)NCCCOCCOCCOCCCNC(=O)CCC(=O)NCCCOCCOCCOCCCNC(=O)CCC(=O)NCCCOCCOCCOCCCNC(=O)CCC(=O)NCCCC[C@H](NC(=O)CNC(=O)[C@H](CCC(=O)O)NC(=O)C(C)(C)NC(=O)C(C)(C)NC(=O)[C@@H](NC(=O)[C@H](CCCCNC(C)=O)NC(=O)[C@H](C)NC(=O)[C@H](CCCNC(=N)N)NC(=O)[C@@H](NC(=O)[C@H](CCCCN)NC(=O)[C@H](CCC(=O)O)NC(=O)[C@H](CCCNC(=N)N)NC(=O)CNC(=O)[C@H](CCC(=O)O)NC(=O)[C@H](CC(C)C)NC(C)=O)C(C)C)[C@@H](C)CC)C(=O)N[C@@H](CO)C(=O)N[C@H](C(=O)N[C@@H](Cc1ccccc1)C(=O)N[C@@H](CO)C(=O)N[C@@](C)(CCCCN)C(=O)N[C@@H](CCCNC(=N)N)C(=O)N[C@@H](C)C(=O)N[C@@H](CCCCNC(C)=O)C(N)=O)[C@@H](C)O)C(=O)O)C(=O)O)C(=O)O` [SEQ ID NO: 3, Ac-L-E-G-R-E-K-V-R-A-K(Ac)-I-Aib-Aib-E-G-K(TTDS-TTDS-TTDS-gE-gE-gE-Palm)-S--T-F-S-Mly-R-A-K(Ac)-NH2] (Ac-LEGREKVRAK(Ac)I[Aib][Aib]EGK([Suc-X1])STFS[αMeK]RAK(Ac)-NH2)?
**A.** AUCinf after iv administration as compared to sc administration ([1]; 4 mg single dose iv vs sc): ~1.3 fold; Cmax after iv administration as compared to sc administration ([1]; 4 mg single dose iv vs sc): approximately 3.5 fold; accumulation ([1]; Day 14, all dose regimens (5 mg, 15 mg, 30 mg sc QD)): approximately 2.6 fold; exposure higher than expected (higher than dose-proportional) ([1]; after 24 mg and 48 mg sc single doses): approximately 15%; bioavailability ([1]; human, in vivo, 4 mg, after sc administration, read-out: absolute bioavailability (F)): ~76%; Cmax ([1]; human, in vivo, iv, 4 mg, Group A2, single 4.0 mg iv, mean, N=6, read-out: Cmax): 1240 ng/mL; Cmax ([1]; human, in vivo, sc, 1 mg, Group A1, single 1.0 mg sc, mean, N=6, read-out: Cmax): 82.9 ng/mL; Cmax ([1]; human, in vivo, sc, 4 mg, Group A2, single 4.0 mg sc, mean, N=6, read-out: Cmax): 356 ng/mL; AUC(0-t) ([1]; human, in vivo, sc, 5 mg, Group B1, 5 mg sc QD, Day 1, mean, N=6): 7790 ng·h/mL; Cmax ([1]; human, in vivo, sc, 5 mg, Group B1, 5 mg sc QD, Day 1, mean, N=6, read-out: Cmax): 384 ng/mL; Cmax ([1]; human, in vivo, sc, 5 mg, Group B1, 5 mg sc QD, Day 14, mean, N=6, Table 6, read-out: Cmax): 1020 ng/mL; Cmax ([1]; human, in vivo, sc, 5 mg, Group B1, 5 mg sc QD, Day 14, mean, N=6, Table 7, read-out: Cmax): 1020 ng/mL; AUC(0-t) ([1]; human, in vivo, sc, 5 mg, Group B1, 5 mg sc QD, Day 14, mean, N=6): 21600 ng·h/mL; Cmax ([1]; human, in vivo, sc, 12 mg, Group A3, single 12.0 mg sc, mean, N=6, read-out: Cmax): 1000 ng/mL; AUC(0-t) ([1]; human, in vivo, sc, 15 mg, Group B2, 15 mg sc QD, Day 1, mean, N=6): 29600 ng·h/mL; Cmax ([1]; human, in vivo, sc, 15 mg, Group B2, 15 mg sc QD, Day 1, mean, N=6, read-out: Cmax): 1630 ng/mL; Cmax ([1]; human, in vivo, sc, 15 mg, Group B2, 15 mg sc QD, Day 14, mean, N=6, Table 6, read-out: Cmax): 3630 ng/mL; Cmax ([1]; human, in vivo, sc, 15 mg, Group B2, 15 mg sc QD, Day 14, mean, N=6, Table 7, read-out: Cmax): 3630 ng/mL; AUC(0-t) ([1]; human, in vivo, sc, 15 mg, Group B2, 15 mg sc QD, Day 14, mean, N=6): 67200 ng·h/mL; Cmax ([1]; human, in vivo, sc, 24 mg, Group A4, single 24.0 mg sc, mean, N=6, read-out: Cmax): 2360 ng/mL; AUC(0-t) ([1]; human, in vivo, sc, 30 mg, Group B3, 30 mg sc QD, Day 1, mean, N=6): 38400 ng·h/mL; Cmax ([1]; human, in vivo, sc, 30 mg, Group B3, 30 mg sc QD, Day 1, mean, N=6, read-out: Cmax): 2010 ng/mL; Cmax ([1]; human, in vivo, sc, 30 mg, Group B3, 30 mg sc QD, Day 14, mean, N=6, Table 6, read-out: Cmax): 6010 ng/mL; Cmax ([1]; human, in vivo, sc, 30 mg, Group B3, 30 mg sc QD, Day 14, mean, N=6, Table 7, read-out: Cmax): 6010 ng/mL; AUC(0-t) ([1]; human, in vivo, sc, 30 mg, Group B3, 30 mg sc QD, Day 14, mean, N=6): 118000 ng·h/mL; Cmax ([1]; human, in vivo, sc, 48 mg, Group A5, single 48.0 mg sc, mean, N=6, read-out: Cmax): 4560 ng/mL; Cmax ([1]; human, in vivo, subcutaneous, 4 mg, SAD study after 4 mg, read-out: Mean Cmax): 356 ng/mL; AUC(0-inf) ([1]; human, in vivo, Group A1, single 1.0 mg sc, mean, N=6): 3220 ng·h/mL; AUC(0-inf) ([1]; human, in vivo, Group A2, single 4.0 mg iv, mean, N=6): 19700 ng·h/mL; AUC(0-inf) ([1]; human, in vivo, Group A2, single 4.0 mg sc, mean, N=6): 15000 ng·h/mL; AUC(0-inf) ([1]; human, in vivo, Group A3, single 12.0 mg sc, mean, N=6): 37100 ng·h/mL; AUC(0-inf) ([1]; human, in vivo, Group A4, single 24.0 mg sc, mean, N=6): 78600 ng·h/mL; AUC(0-inf) ([1]; human, in vivo, Group A5, single 48.0 mg sc, mean, N=6): 178000 ng·h/mL; AUC(0-inf) ([1]; human, in vivo, Group B1, 5 mg sc QD, Day 14, mean, N=6): 50300 ng·h/mL; half-life ([1]; human, in vivo, Group B1, 5 mg sc QD, Day 14, mean, N=6, read-out: T½ (converted)): 23.4 h; AUC(0-inf) ([1]; human, in vivo, Group B2, 15 mg sc QD, Day 14, mean, N=6): 143000 ng·h/mL; half-life ([1]; human, in vivo, Group B2, 15 mg sc QD, Day 14, mean, N=6, read-out: T½ (converted)): 22.9 h; AUC(0-inf) ([1]; human, in vivo, Group B3, 30 mg sc QD, Day 14, mean, N=6): 278000 ng·h/mL; half-life ([1]; human, in vivo, Group B3, 30 mg sc QD, Day 14, mean, N=6, read-out: T½ (converted)): 24.3 h; half-life ([1]; human, in vivo, sc multiple ascending doses, read-out: Terminal half life): 23 to 24 h; dose proportionality of exposures ([1]; multiple ascending sc doses, up to dose regimen of 30 mg): increased dose-proportionally; dose proportionality of exposures ([1]; single ascending sc doses, up to a dose of 12 mg): increased dose-proportionally; AUC(0-inf) ([2]; Normal renal function group, mean, N=2): 12900 ng·h/mL; Cmax ([2]; Normal renal function group, mean, N=2, read-out: Cmax): 302 ng/mL; AUC(0-inf) ([2]; Severe renal impairment group, mean, N=5): 17000 ng·h/mL; Cmax ([2]; Severe renal impairment group, mean, N=5, read-out: Cmax): 392 ng/mL; Cmax ([2]; normal group, read-out: Mean Cmax): 302 ng/mL; Cmax ([2]; severe renal impaired group, read-out: Mean Cmax): 392 ng/mL; increase of mean AUCinf [2, 5]: 14-31%; increase of mean Cmax [2, 5]: 10-30%; tolerability and safety ([3]; 5 subjects severe renal impairment and 2 normal renal function): well tolerated and safe; severity of reported adverse events ([3]; two AEs (palpitation, headache) in one subject): grade 1 (mild); tolerability and safety ([4]; part A: single sc 1.0, 4.0, 12.0, 24, 48 mg and single iv 4.0 mg): well tolerated and safe; severity of reported adverse events ([4]; part A: single sc 1.0-48 mg and iv 4.0 mg): mild (grade 1); severity of reported adverse events [4, 6]: mild (grade 1); tolerability and safety [4, 6]: well tolerated and safe
